Source: US11214803B2, “Modulators of YAP1 expression” (Ionis Pharmaceuticals, Inc., priority 2019, dated 2022)
Marks after values point to notes of the source that are not given here. Strand notation (5' to 3'): a small letter for the sugar, then the base; units joined by * are phosphorothioate-linked, units joined directly phosphodiester-linked; [ ] holds rarer units or linkages, { } end groups; capitals alone tell only the bases. k = constrained ethyl (cEt); [5mC] = 5-methylcytosine; d = 2'-deoxy (DNA)

system: Yap1 mRNA; assay: Antisense inhibition of human Yap1 in A-431 cells by cEt gapmers, single dose (Example 3, RTS36584); assay type: cell-based; settings: Table 8; A-431 cells, 5,000 cells per well, free uptake, 2,000 nM, approximately 48 hours; RTS36584; normalized to RIBOGREEN; Yap1 mRNA relative to untreated control cells
Procedure, shortened: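 A-431 cells were treated by free uptake with 2,000 nM modified oligonucleotide (3-10-3 cEt gapmers, full phosphorothioate, 5-methylcytosines) for about 48 hours. Yap1 mRNA was quantified by real-time RT-PCR, normalized to RiboGreen total RNA, and expressed as % of untreated control; asterisked values mark oligonucleotides targeting the amplicon region.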

Going from “958408 (antisense k[5mC]*kT*kA*dT*dA*dT*dA*dT*dG*dG*dT*dA*dG*kT*k[5mC]*kT) [Compound 958408]” to “958352 (k[5mC]*kG*kG*dT*d[5mC]*dT*d[5mC]*d[5mC]*dG*dA*dG*dT*d[5mC]*k[5mC]*k[5mC]*k[5mC]; antisense) [Compound 958352]”, the “YAP1 (% UTC)” value rises from 20 % UTC to 110 % UTC.

First: 958402 (antisense k[5mC]*kT*k[5mC]*dT*dT*dA*d[5mC]*dA*d[5mC]*dA*dG*d[5mC]*d[5mC]*kT*kA*kG) [Compound 958402]
Second: 958390 (antisense kG*k[5mC]*kG*dA*dA*dG*dG*dT*dG*d[5mC]*dG*dG*dA*kG*k[5mC]*kG) [Compound 958390]
The “YAP1 (% UTC)” value of the first is lower: 28 % UTC for the first, 145 % UTC for the second.

With “958371 (antisense kA*k[5mC]*k[5mC]*dA*dA*d[5mC]*dT*dA*dT*dT*dA*d[5mC]*dT*kT*k[5mC]*kA) [Compound 958371]” the “YAP1 (% UTC)” value was 2 % UTC.

“958366 (antisense kT*kG*kT*dA*dG*d[5mC]*dT*dG*d[5mC]*dT*d[5mC]*dA*dT*kG*k[5mC]*kT) [Compound 958366]” was tested, and the “YAP1 (% UTC)” value was 16* % UTC.

same assay, conditions: Table 9; A-431 cells, 5,000 cells per well, free uptake, 2,000 nM, approximately 48 hours; RTS36584; normalized to RIBOGREEN; Yap1 mRNA relative to untreated control cells

Compared with “958641 (antisense kA*kG*k[5mC]*dT*dA*d[5mC]*dA*dG*dA*dG*d[5mC]*dT*dT*kA*kA*k[5mC]) [Compound 958641]”, “958516 (k[5mC]*kT*kG*d[5mC]*dA*dG*dA*d[5mC]*dT*dG*d[5mC]*d[5mC]*d[5mC]*k[5mC]*kA*kA; antisense) [Compound 958516]” is lower in “YAP1 (% UTC)” value: 102 % UTC for the first, 38 % UTC for the second.

First: 958446 (antisense k[5mC]*k[5mC]*kT*dG*dA*d[5mC]*d[5mC]*d[5mC]*dA*dG*dG*d[5mC]*dG*kA*kG*k[5mC]) [Compound 958446]
Second: 958651 (kA*kA*k[5mC]*dT*dA*dA*dA*dG*dA*dG*dG*dA*d[5mC]*kT*kT*kA; antisense) [Compound 958651]
The “YAP1 (% UTC)” value of the first is higher: 70 % UTC for the first, 62 % UTC for the second.

same assay, conditions: Table 10; A-431 cells, 5,000 cells per well, free uptake, 2,000 nM oligonucleotide, approx. 48 hours; primer probe set RTS36584; Yap1 mRNA normalized to RIBOGREEN, percent of untreated control

Going from “958452 (antisense k[5mC]*kT*k[5mC]*d[5mC]*dA*dG*dG*dT*d[5mC]*dG*dG*dT*d[5mC]*kT*k[5mC]*k[5mC]) [Compound 958452]” to “958722 (antisense k[5mC]*kA*kT*dA*dA*dT*dA*dG*dG*dA*d[5mC]*dA*d[5mC]*kA*kA*k[5mC]) [Compound 958722]”, the “YAP1 (% UTC)” value rises from 26 % UTC to 59 % UTC.

Going from “958742 (antisense kA*kG*k[5mC]*dA*dA*dT*dA*dT*dG*dG*dT*dA*dT*kT*kA*kG) [Compound 958742]” to “958447 (antisense kG*kT*kT*dG*dA*dG*dG*d[5mC]*dG*dG*d[5mC]*dG*dG*k[5mC]*kT*kG) [Compound 958447]”, the “YAP1 (% UTC)” value rises from 4 % UTC to 48 % UTC.

First: 958622 (antisense kG*kA*kT*dA*dT*dT*d[5mC]*d[5mC]*dG*d[5mC]*dA*dT*dT*kG*k[5mC]*k[5mC]) [Compound 958622]
Second: 958512 (k[5mC]*kA*kT*dT*d[5mC]*d[5mC]*dA*d[5mC]*dT*dA*d[5mC]*d[5mC]*dA*k[5mC]*kA*k[5mC]; antisense) [Compound 958512]
The “YAP1 (% UTC)” value of the first is lower: 3 % UTC for the first, 14 % UTC for the second.

same assay, conditions: Table 11; A-431 cells, 5,000 cells per well, free uptake, 2,000 nM oligonucleotide, approx. 48 hours; primer probe set RTS36584; Yap1 mRNA normalized to RIBOGREEN, percent of untreated control

First: 958773 (antisense kA*kG*k[5mC]*dT*dG*dG*dT*dA*dG*dG*dG*d[5mC]*dA*kA*kG*kA) [Compound 958773]
Second: 958788 (antisense k[5mC]*kT*kG*dG*dG*d[5mC]*dA*dA*dA*dG*dT*dT*d[5mC]*k[5mC]*kT*k[5mC]) [Compound 958788]
The “YAP1 (% UTC)” value of the first is lower: 43 % UTC for the first, 54 % UTC for the second.

Compared with “958503 (kA*kA*k[5mC]*d[5mC]*dA*dT*d[5mC]*d[5mC]*d[5mC]*dA*dA*dG*d[5mC]*kT*kA*k[5mC]; antisense) [Compound 958503]”, “958753 (antisense kT*kG*kT*dA*dT*dA*dT*dG*d[5mC]*d[5mC]*dG*dT*dT*k[5mC]*k[5mC]*k[5mC]) [Compound 958753]” is lower in “YAP1 (% UTC)” value: 15 % UTC for the first, 4 % UTC for the second.

For “958608 (antisense kT*kG*kA*dT*dA*dG*dG*d[5mC]*dA*d[5mC]*dA*d[5mC]*d[5mC]*k[5mC]*kA*k[5mC]) [Compound 958608]”, the “YAP1 (% UTC)” value was 11 % UTC.

same assay, conditions: Table 12; A-431 cells, 5,000 cells per well, free uptake, 2,000 nM modified oligonucleotide, approx. 48 hours; RTS36584; normalized to RIBOGREEN; Yap1 mRNA relative to untreated control cells

First: 958749 (antisense k[5mC]*k[5mC]*kA*d[5mC]*dA*dA*dG*dG*dG*d[5mC]*dA*dG*dT*kA*k[5mC]*kG) [Compound 958749]
Second: 958699 (antisense kG*kA*k[5mC]*dT*dA*dG*dA*dA*dA*dG*dA*dT*d[5mC]*kA*kT*k[5mC]) [Compound 958699]
The “YAP1 (% UTC)” value of the first is higher: 51 % UTC for the first, 20 % UTC for the second.

Compared with “958659 (kG*kT*kT*dG*dT*dA*dT*dT*dA*d[5mC]*dT*d[5mC]*dT*k[5mC]*k[5mC]*kA; antisense) [Compound 958659]”, “958439 (antisense kG*k[5mC]*kG*d[5mC]*d[5mC]*d[5mC]*d[5mC]*dG*dG*d[5mC]*dT*d[5mC]*d[5mC]*kA*k[5mC]*kT) [Compound 958439]” is higher in “YAP1 (% UTC)” value: 2 % UTC for the first, 77 % UTC for the second.

same assay, conditions: Table 13; A-431 cells, 5,000 cells per well, free uptake, 2,000 nM modified oligonucleotide, approx. 48 hours; RTS36584; normalized to RIBOGREEN; Yap1 mRNA relative to untreated control cells

Compared with “958540 (kA*kT*kT*d[5mC]*dT*dA*dT*d[5mC]*d[5mC]*dA*dG*dG*dG*kT*k[5mC]*kA; antisense) [Compound 958540]”, “958470 (antisense kT*kA*kG*dA*dT*d[5mC]*d[5mC]*dT*dT*d[5mC]*dA*d[5mC]*dA*kG*kA*kT) [Compound 958470]” is higher in “YAP1 (% UTC)” value: 8 % UTC for the first, 18 % UTC for the second.

In the case of “958465 (antisense kG*kG*k[5mC]*dT*dT*d[5mC]*dA*dA*dG*dG*dT*dA*dG*kT*k[5mC]*kT) [Compound 958465]”, the “YAP1 (% UTC)” value is reported as 84 % UTC.

same assay, conditions: Table 26; Yap1 mRNA by 3-10-3 cEt gapmers targeting SEQ ID NO.: 1, and 2; percent of untreated control

Going from “1075372 (antisense kA*kT*kA*dT*dA*dT*dA*dG*dA*d[5mC]*dT*dT*dG*kA*kG*kA) [compound 1075372]” to “1075148 (k[5mC]*kG*kG*dA*dA*dA*dA*dA*dA*d[5mC]*dA*d[5mC]*d[5mC]*kT*kA*kG; antisense) [compound 1075148]”, the “YAP1 (% UTC)” value rises from 27 % UTC to 66 % UTC.

Compared with “1075980 (k[5mC]*kA*kA*dT*dA*dT*d[5mC]*d[5mC]*dT*dA*d[5mC]*dA*d[5mC]*k[5mC]*kA*kT; antisense) [compound 1075980]”, “1076140 (kA*k[5mC]*kG*dA*dA*dA*dA*dA*dA*dG*d[5mC]*d[5mC]*dA*kA*k[5mC]*kA; antisense) [compound 1076140]” is lower in “YAP1 (% UTC)” value: 43 % UTC for the first, 28 % UTC for the second.

In the case of “1076332 (antisense kT*kA*kT*dA*dA*dG*dG*dA*dA*dT*dG*dG*d[5mC]*kA*kA*k[5mC]) [compound 1076332]”, the “YAP1 (% UTC)” value is reported as 107 % UTC.

same assay, conditions: Table 27; Yap1 mRNA by 3-10-3 cEt gapmers targeting SEQ ID NO.: 1, and 2; percent of untreated control

Going from “1074829 (kG*kG*kA*dT*dA*dA*dA*dA*dT*d[5mC]*d[5mC]*dA*d[5mC]*k[5mC]*kT*kG; antisense) [compound 1074829]” to “1074765 (k[5mC]*kA*kA*dT*dG*d[5mC]*dT*dA*d[5mC]*d[5mC]*d[5mC]*dA*dA*kT*kA*k[5mC]; antisense) [compound 1074765]”, the “YAP1 (% UTC)” value falls from 92 % UTC to 34 % UTC.

First: 1074157 (kA*kG*k[5mC]*dG*dA*dG*dG*dG*d[5mC]*dT*dA*d[5mC]*dG*k[5mC]*k[5mC]*k[5mC]; antisense) [compound 1074157]
Second: 1075245 (k[5mC]*k[5mC]*kT*dA*dA*dT*dA*dT*dG*d[5mC]*dT*dA*dT*kT*kG*kT; antisense) [compound 1075245]
The “YAP1 (% UTC)” value of the first is higher: 103 % UTC for the first, 34 % UTC for the second.

For “1075373 (antisense kT*kA*kT*dA*dT*dA*dT*dA*dG*dA*d[5mC]*dT*dT*kG*kA*kG) [compound 1075373]”, the “YAP1 (% UTC)” value was 13 % UTC.

same assay, conditions: Table 28; Yap1 mRNA as percent of untreated control; 3-10-3 cEt gapmers targeting SEQ ID NO.: 1, and 2

With “1075918 (antisense k[5mC]*kT*kT*dA*dA*dA*d[5mC]*dT*dA*dA*d[5mC]*dT*dG*kT*kT*kG) [compound 1075918]” the “YAP1 (% UTC)” value was 82 % UTC.

same assay, conditions: Table 29; Yap1 mRNA as percent of untreated control; 3-10-3 cEt gapmers targeting SEQ ID NO.: 1, and 2

First: 1074575 (DNA kA*k[5mC]*kA*dT*dT*dA*dT*dG*dA*dA*d[5mC]*d[5mC]*dT*kA*k[5mC]*kT) [compound 1074575]
Second: 1075503 (kG*k[5mC]*kT*dG*dA*dA*dA*dA*dA*dG*dG*dG*d[5mC]*kT*kT*kA; antisense) [compound 1075503]
The “YAP1 (% UTC)” value of the first is lower: 14 % UTC for the first, 66 % UTC for the second.

Going from “1075535 (kA*kA*kT*dT*dA*d[5mC]*d[5mC]*d[5mC]*dA*dA*dG*dG*dA*k[5mC]*kA*kG; antisense) [compound 1075535]” to “1074319 (antisense kG*k[5mC]*kT*dA*dA*d[5mC]*dT*d[5mC]*d[5mC]*dT*dG*dA*d[5mC]*kA*kT*kT) [compound 1074319]”, the “YAP1 (% UTC)” value falls from 53 % UTC to 47 % UTC.

“1076271 (k[5mC]*kG*kG*d[5mC]*dA*dA*d[5mC]*dA*dA*d[5mC]*dA*dA*dA*kA*kT*kG; antisense) [compound 1076271]” was tested, and the “YAP1 (% UTC)” value was 18 % UTC.

same assay, conditions: Table 34; Yap1 mRNA as percent of untreated control; 3-10-3 cEt gapmers targeting SEQ ID NO: 1 and 2; single dose

In the case of “1074964 (antisense kT*kT*kA*dG*dG*d[5mC]*dA*dA*dG*d[5mC]*dA*dG*d[5mC]*kT*kA*kA) [compound 1074964]”, the “YAP1 (% UTC)” value is reported as 112 % UTC.
